Ends that are not written are not given here.
Columns and labels:
293T cells = assay type: cell-based, human; details: for Effect of other salts on enhancing TAN-mediated transfection: salt in place of CaCl2
Experimental: 293T (human embryonic kidney) cells were grown in Dulbecco's modified Eagle's medium (Life Technologies, Rockville, Md.) supplemented with 10% FBS, 100 units/ml penicillin, and 100 μg/ml of streptomycin in a 37° C. CO2 incubator. Cells were regularly passed to maintain growth. Twenty-four hours before transfection, cells were trypsinized and plated on 96-well plates (100 μl/well) in the above medium without the antibiotics. Ten μl of fraction 2 was added to 293T cells at 15% confluency in serum-containing medium. Fluorescence microscopy was performed at 12 hours, after changing medium and washing cells.
TAN (SEQ ID NO:3) at 0.1 to 5 μg per 96-well transfection was mixed with 0.1 μg plasmid pEGFP-N1 (BD ClonTech) for 5 min, diluted in 40 μl DMEM, then added to cells. Fluorescence microscopy was performed at different time points to observe the expression of GFP as the indication of transfection event. Note that by using GFP as reporter, the total transfection efficiency was underestimated due to certain percentage of cells would not express the GFP to levels high enough for detection.
Different concentrations of TAN (SEQ ID NO:3) and CaCl2 were tested in combination for transfection. TAT (SEQ ID NO:1) and another peptide, HT 31 (a widely used PKA-anchor interaction interruption peptide) were included as controls. Generally, experiments were performed similarly as in the above examples except that peptide was added to DNA first, followed by addition of CaCl2.

[1] = system: monkey kidney cell Vero-E6; assay: Peptide as additive to TransIt-Oligo reagent transfection of pEFGP-N1; assay type: cell-based; details: 0.1 μg plasmid, 96-well, about 30% confluency, increasing amount of peptide
[2] = system: approximately 300 bp PCR product linear dsDNA; assay: Band-shift assay with short linear dsDNA (siRNA-expressing PCR product); assay type: binding; details: 30 min reaction, 2% gel
Experimental: In order to examine whether TAN could directly interact with the transfected plasmid DNA as predicted by the transfection results, band-shift assays were performed. Different amount of TAN (SEQ ID NO:3) dissolved in H2O was mixed with 0.5 μg of plasmid with or without 15 mM CaCl2, incubated for 5 min, followed by addition of 2 μl of DNA loading dye (30% glycerol), and loaded to 0.7% agarose gel. The EB-containing gel was run for about 45 min at 120 volts before the picture taken under UV lights.
The ability of TAN (SEQ ID NO:3) to bind short linear dsDNA also was examined. The DNA tested was an approximately 300 bp PCR product that is used to express small interfering RNAs (siRNAs). The experiments were done similarly to those described in Example 6, except that the reactions were allowed to proceed to 30 min and the gel was 2%. […] This difference may be due to a difference in the relative amount of DNA in each type of complex or to the structural constrains of linear versus circular DNA. […] Because these cassettes express siRNAs under the control of Pol III promoter as apposed to Pol II in GFP expression unit, it is therefore likely that peptide assisted transfection (PAT) is independent of promoter used, as expected.

[Cl-].[Cl-].[Mg+2] [MgCl2]
Effect of other salts on enhancing TAN-mediated transfection (293T cells): showed no effect

[Cl-].[Na+] [NaCl]
Effect of other salts on enhancing TAN-mediated transfection (293T cells): showed no effect

YGRKKRRQRRR [TAT]
Effect of control peptide together with CaCl2 (293T cells; control peptides with CaCl2 and DNA): caused cells to lyse | Enhancement of TransIt-Oligo transfection by peptide [1]: did not show such enhancement | Behaviour at slightly increased concentration [2]: quickly precipitated DNA | Binding to linear dsDNA (band shift) [2]: did not bind at the lower concentrations

YGRKKRRQRRRGQRNPNKKWS [TAN]
Toxicity to treated cells (growth arrest, cell death) (293T cells; peptide/Ca++ transfection): did not show arrest of growth or cell death
